From patent US20080089851A1, “Brown Algae Cell Lyophilisate, Method For The Obtention Thereof” (BIOTECHMARINE, priority 2005, published 2008) come the findings set out here.

The test system of test [1] is normal human keratinocytes. As to the kind of experiment: Transport of lipids (choline), normal human keratinocytes. It is filed as cell-based. The settings on record: for Capture of [^3H]choline: DPA 1 mM. As for the experimental part: (§1) The obtained microsomes from human keratinocytes in culture were rinsed 3 times with 25 mM Tris buffer, then preincubated in 1 ml of the same buffer for 30 minutes at 37° C. This solution was then discarded and the microsomes were placed into the 25 mM Tris buffer containing [^3H] Choline with stirring in a water bath at 37° C. The capture of choline was stopped by addition of a lysis buffer containing (50 mM de Tris, 140 mM NaCl, 1.5 mM MgSO4, 0.5% Igepal-Ca-630, 0.2% SDS). The kinetics of incubation was performed between 30 and 120 seconds. Subsequently, the microsomes were rinsed 2 times with PBS then dissolved in NaOH (1M) at 4° C. over night. The radioactivity was determined with a scintillation counter.
7.2—Assessment of the Rate of Transport of Macromolecules at the Level of Normal Human Keratinocytes
The applied method was that of explants allowing to obtain, from a biopsy of human skin, keratinocytes in primary cultures. The assays were carried out on keratinocytes between the 2nd and the 4th passage in order to ensure a reproductibility between the different experiences.
The keratinocytes were divided into multiwell plates (6 wells) at a rate of 10^5 cells per well in 1 ml of culture medium […] supplemented with insulin and hydrocortisone. The cells were incubated in the presence and absence of the investigated product.
7.2.2—Transport of Lipids
(§2) The membrane microsomes were separated by differential centrifugation.
The same protocol of capture of [3H] choline was used for the determination of the speed of transport of choline (cf. 6.1.2)

Test [2] deals with human keratinocytes in senescence. As to the kind of experiment: Transport of lipids (choline), human keratinocytes in senescence. It is filed as cell-based. The settings on record: for Capture of [^3H]choline: DPA 1 mM. As for the experimental part: as §1
(§3) 7.3—Assessment of the Rate of Transport of Macromolecules at the Level of Human Keratinocytes in Senescence
(§4) The senescence is a phenomenon of cellular aging, where the cells are arrested in the phase G1 of the cell cycle and never enter the synthesis phase leading to the cell division. Senescent cells are characterized by their slow metabolism at synthesis and transport of macromolecules levels.
(§5) The cells in culture deprived of serum stop their growth, but continue to progress through the cell cycle until they reach the phase G1.
The assays were performed on keratinocytes, between the 8th and the 10th passage, in order to ensure the presence of senescent cells at control cells level.
(§6) The keratinocytes were seeded in multiwell plates (6 wells) at a rate of 10^5 cells per well in 3 ml of culture medium […] supplemented with EGF, hydrocortisone, insulin and gentamicyn. Afterwards they are maintained for 5 days in incubator under CO2.
7.3.2—Transport of Lipids
as §2
The same protocol of capture of [3H] Choline was applied to the determination of the rate of transport of choline (cf. 6.1.2)

Test [3] has as its system microsomes of human keratinocytes. As to the kind of experiment: Transport of lipids (choline), direct treatment of isolated microsomes. It is filed as biochemical. As to conditions: for Capture of [^3H]choline: DPA 1 mM.
Excerpt: 7.1—Assessment of the Rate of Transport of Macromolecules (Glucids, Lipids and Proteins) in a System of Isolated Microsomes. Direct Effect of the BB Product on Isolated Microsomes:
The microsomes of human keratinocytes form a membrane fraction obtained by high-speed differential centrifugation of a cell homogenate. This preparation of microsomes requires the addition of exogenous cofactors such as NADPH.
7.1.2—Transport of Lipids
as §1
The protein assay was carried out following the BRADFORD method. The increase in absorbance at 595 nm, determined with a spectrophotometer, is proportional to the protein concentration.

For test [4] the test system is unchanged. The test is described as follows: Transport of proteins (albumin), direct treatment of isolated microsomes. It is filed as biochemical. The settings on record: for Capture of albumin-FITC: ND 6 mg/ml. As to the method: 7.1—Assessment of the Rate of Transport of Macromolecules (Glucids, Lipids and Proteins) in a System of Isolated Microsomes. Direct Effect of the BB Product on Isolated Microsomes: The microsomes of human keratinocytes form a membrane fraction obtained by high-speed differential centrifugation of a cell homogenate. This preparation of microsomes requires the addition of exogenous cofactors such as NADPH. 7.1.3—Transport of Proteins (Albumin) The assay was performed in triplicate after the direct treatment of microsomes. • Charge 1: negative control not receiving any product • Charge 2: positive control (Nocodazole, 6 mg/ml) • Charge 3-5: treated receiving the investigated product (3 concentrations) • Charge 6-8: treated with Nocodazole 6 mg/ml, and with the investigated product (3 concentrations) The obtained microsomes from human keratinocytes in culture were rinsed 3 times with a buffer, afterwards pre-incubated in 1 ml of the same buffer for 30 minutes at 3° C. This solution was subsequently discarded and the microsomes were placed into the HBSS buffer containing albumin-FITC with stirring in a water bath at 37° C. The capture of albumin is stopped by addition of a Ringer's solution containing 122.5 mM NaCl; 5.4 mM KCl; 1.2 mM CaCl2; 0.8 mM MgCl2; 0.8 Na2HPO4; 0.2 NaHPO4; 5.5 mM glucose; 10 mM HEPES, pH 7,4. Afterwards, the microsomes were treated with Triton X-100 at (0.1% v/v in 3-(N-morpholino) propanesulfonic acid 20 mM, pH 7.4). The fluorescence was quantified with a spectrophotometer (excitation 480 nm: emission 520 nm). The kinetics of incubation was performed between 30 and 120 seconds. The treatment of microsomes with the BB product alone or in the presence of Nocodazole (ND) were carried out at the same time as the introduction of albumin-FITC into the incubation medium. The assay of proteins was performed following the BRADFORD method. The increase in absorbance at 595 nm is proportional to the concentration of proteins measured with a spectrophotometer.

Test [5] relates to normal human keratinocytes. As to the kind of experiment: Transport of proteins (albumin), normal human keratinocytes. It is filed as cell-based. As to conditions: for Capture of albumin-FITC: S.D. 6 mg/ml. As for the experimental part:
The obtained microsomes from human keratinocytes in culture were rinsed 3 times with a buffer, afterwards pre-incubated in 1 ml of the same buffer for 30 minutes at 3° C. This solution was subsequently discarded and the microsomes were placed into the HBSS buffer containing albumin-FITC with stirring in a water bath at 37° C. The capture of albumin is stopped by addition of a Ringer's solution containing 122.5 mM NaCl; 5.4 mM KCl; 1.2 mM CaCl2; 0.8 mM MgCl2; 0.8 Na2HPO4; 0.2 NaHPO4; 5.5 mM glucose; 10 mM HEPES, pH 7,4. Afterwards, the microsomes were treated with Triton X-100 at (0.1% v/v in 3-(N-morpholino) propanesulfonic acid 20 mM, pH 7.4). The fluorescence was quantified with a spectrophotometer (excitation 480 nm: emission 520 nm). The kinetics of incubation was performed between 30 and 120 seconds. 7.2—Assessment of the Rate of Transport of Macromolecules at the Level of Normal Human Keratinocytes The applied method was that of explants allowing to obtain, from a biopsy of human skin, keratinocytes in primary cultures. The assays were carried out on keratinocytes between the 2nd and the 4th passage in order to ensure a reproductibility between the different experiences. The keratinocytes were divided into multiwell plates (6 wells) at a rate of 10^5 cells per well in 1 ml of culture medium […] supplemented with insulin and hydrocortisone. The cells were incubated in the presence and absence of the investigated product. 7.2.3—Transport of Proteins (Albumin) The assay was carried out in triplicate on normal human keratinocytes in culture. • Charge 1: negative control not receiving any product. • Charge 2: positive control (Nocodazole, 6 mg/ml) • Charge 3-5: treated receiving the investigated product (3 concentrations) • Charge 6-8: treated with Nocodazole, 6 mg/ml, and with the investigated product (3 concentrations) The treatment of keratinocytes with the BB product in the presence and absence of Nocodazole, 6 mg/ml, was carried out for 120 minutes at 37° C. The membrane microsomes were separated by differential centrifugation. The same protocol of capture of albumin-FITC was used for the determination of the rate of transport of albumin (cf. 3.1.4.2)

The subject of test [6] is human keratinocytes in senescence. As to the kind of experiment: Transport of proteins (albumin), human keratinocytes in senescence. It is filed as cell-based. The settings on record: for Capture of albumin-FITC: ND 6 mg/ml. As to the method: The obtained microsomes from human keratinocytes in culture were rinsed 3 times with a buffer, afterwards pre-incubated in 1 ml of the same buffer for 30 minutes at 3° C. This solution was subsequently discarded and the microsomes were placed into the HBSS buffer containing albumin-FITC with stirring in a water bath at 37° C. The capture of albumin is stopped by addition of a Ringer's solution containing 122.5 mM NaCl; 5.4 mM KCl; 1.2 mM CaCl2; 0.8 mM MgCl2; 0.8 Na2HPO4; 0.2 NaHPO4; 5.5 mM glucose; 10 mM HEPES, pH 7,4. Afterwards, the microsomes were treated with Triton X-100 at (0.1% v/v in 3-(N-morpholino) propanesulfonic acid 20 mM, pH 7.4). The fluorescence was quantified with a spectrophotometer (excitation 480 nm: emission 520 nm). The kinetics of incubation was performed between 30 and 120 seconds.
as §3, §4, §5
The applied method allowed to obtain, from a human skin biopsy, primary cultures of keratinocytes. The assays were performed on keratinocytes, between the 8th and the 10th passage, in order to ensure the presence of senescent cells at control cells level.
as §6
7.3.3—Transport of Proteins (Albumin)
The assay was carried out in triplicate on human keratinocytes in senescence. • Charge 1: negative control not receiving any product. • Charge 2: positive control (Nocodazole, 6 mg/ml) • Charge 3-5: treated receiving the investigated product (3 concentrations) • Charge 6-8: treated with Nocodazole, 6 mg/ml, and the investigated product (3 concentrations)
The treatment of keratinocytes with the BB product in the presence and absence of Nocodazole, 6 mg/ml, was carried out for 120 minutes at 37° C. The membrane microsomes were separated by differential centrifugation.
The same protocol of capture of albumin-FITC was applied to determine the rate of transport of albumin (cf. 6.1.3)

Consider `CN(C)CCOC(c1ccccc1)c1ccccc1` [DPA, Diphenhydramin], for which the “Capture of [^3H]choline” value in test [1] (30 s) is 92 pmol/mg proteins; in test [1] (60 s), 115 pmol/mg proteins; in test [1] (90 s), 143 pmol/mg proteins; in test [1] (120 s) it was 156 pmol/mg proteins; in test [2] (30 s), 55 pmol/mg of proteins; in test [2] (60 s), 79 pmol/mg of proteins. The “Capture of [^3H]choline” value in test [2] (120 s) is on record as 119 pmol/mg of proteins; in test [3] (30 s), 74 pmol/mg proteins; in test [3] (60 s) it was 105 pmol/mg proteins; in test [3] (90 s), 132 pmol/mg proteins; in test [3] (120 s), 142 pmol/mg proteins. Further, the entries for the “rate of transport of lipids (in words)” value in test [1] (Diphenhydramin 1 mM alone), in test [2] (Diphenhydramin 1 mM alone) and in test [3] (Diphenhydramin 1 mM alone) were “moderately inhibits”, “strongly inhibits” and “strongly inhibits”, respectively.
For `COC(=O)Nc1nc2ccc(C(=O)c3cccs3)cc2[nH]1` [ND, Nocodazole], the “Capture of albumin-FITC” value in test [4] (30 s) worked out at 0.11 μg/mg proteins; in test [4] (60 s) it was 0.29 μg/mg proteins; in test [4] (90 s), 0.34 μg/mg proteins; in test [4] (120 s), 0.43 μg/mg proteins; in test [5] (30 s), 0.09 μg/mg proteins; in test [5] (60 s), 0.22 μg/mg proteins. For the same compound, the “Capture of albumin-FITC” value in test [5] (90 s) was 0.26 μg/mg proteins; in test [5] (120 s) it was 0.37 μg/mg proteins; in test [6] (30 s), 0.06 μg/mg of proteins; in test [6] (60 s) it was 0.11 μg/mg of proteins; in test [6] (90 s), 0.19 μg/mg of proteins; in test [6] (120 s) it was 0.3 μg/mg of proteins. For the same compound, the “rate of transport of proteins (in words)” value in test [4] (Nocodazole 6 mg/ml alone) is on record as “strongly inhibits”; in test [5] (Nocodazole 6 mg/ml alone), “inhibits”; in test [6] (Nocodazole 6 mg/ml alone) it was “inhibits”.
